# Experimental data from article PMC11357990, “A first-in-class selective inhibitor of EGFR and PI3K offers a single-molecule approach to targeting adaptive resistance” (Nature Cancer, 2024).
# Experiments:
# EGFR = EGFR (Homo sapiens, UniProt P00533); assay: X-ray cocrystal structure ([…] Å); purified kinase assay IC50; format: biochemical; set-up: G696-G1022
# [1] = target: T1, mGluR5 (h) (agonist radioligand) (Homo sapiens, UniProt P41594); assay: biochemical; details: read-out: Binding / ================================================= / % Inhibition of Control Specific Binding
# T1 construct: gene GRM5
# [2] = target: T2, N muscle-type (h) (antagonist radioligand) (Homo sapiens, UniProt P02708+P07510+Q07001); assay: biochemical; details: read-out: Binding / ================================================= / % Inhibition of Control Specific Binding
# T2 construct: gene CHRNA1
# [3] = target: AR(h) (agonist radioligand) (Homo sapiens, UniProt P10275); assay: biochemical; details: read-out: Binding / ================================================= / % Inhibition of Control Specific Binding
# [4] = target: T3, GABAA1 (h) (alpha 1,beta 2,gamma 2) (agonist radioligand) (Homo sapiens, UniProt P14867+P47870); assay: biochemical; details: read-out: Binding / ================================================= / % Inhibition of Control Specific Binding
# T3 construct: gene GABRA1
# [5] = target: T4, PAF (h) (agonist radioligand) (Homo sapiens, UniProt P25105); assay: biochemical; details: read-out: Binding / ================================================= / % Inhibition of Control Specific Binding
# T4 construct: gene PTAFR
# [6] = target: T5, 5-HT1B (h) (antagonist radioligand) (Homo sapiens, UniProt P28222); assay: biochemical; details: read-out: Binding / ================================================= / % Inhibition of Control Specific Binding
# T5 construct: gene HTR1B
# [7] = target: T6, 5-HT3 (h) (antagonist radioligand) (Homo sapiens, UniProt P46098); assay: biochemical; details: read-out: Binding / ================================================= / % Inhibition of Control Specific Binding
# T6 construct: gene HTR3A
# PI3Kβ = target: T7, PI3Kβ (Homo sapiens, UniProt P42338); assay: biochemical; set-up: Purified kinase inhibition, Z'-LYTE (HER, mTOR, DNA-PK) or Adapta (PI3K), ATP at Km apparent
# T7 construct: gene PIK3CB; Km ATP
# Description: (§1) IC50 values were determined at a concentration of ATP corresponding to the Km apparent for that kinase.
# HER2 = target: T8, HER2 (Homo sapiens, UniProt P04626); assay: biochemical; set-up: Purified kinase inhibition, Z'-LYTE (HER, mTOR, DNA-PK) or Adapta (PI3K), ATP at Km apparent
# T8 construct: gene ERBB2; Km ATP
# Description: as §1
# HER4 = target: T9, HER4 (Homo sapiens, UniProt Q15303); assay: biochemical; set-up: Purified kinase inhibition, Z'-LYTE (HER, mTOR, DNA-PK) or Adapta (PI3K), ATP at Km apparent
# T9 construct: gene ERBB4; Km ATP
# Description: as §1
# mTOR = target: T10, mTOR (Homo sapiens, UniProt P42345); assay: biochemical; set-up: Purified kinase inhibition, Z'-LYTE (HER, mTOR, DNA-PK) or Adapta (PI3K), ATP at Km apparent
# T10 construct: Km ATP
# Description: as §1
# PI3Kα = PI3Kα (Homo sapiens, UniProt P42336); assay: biochemical kinase assay at ATP Km apparent; set-up: gene PIK3CA
# Sequence of PI3Kα (P42336 whole entry): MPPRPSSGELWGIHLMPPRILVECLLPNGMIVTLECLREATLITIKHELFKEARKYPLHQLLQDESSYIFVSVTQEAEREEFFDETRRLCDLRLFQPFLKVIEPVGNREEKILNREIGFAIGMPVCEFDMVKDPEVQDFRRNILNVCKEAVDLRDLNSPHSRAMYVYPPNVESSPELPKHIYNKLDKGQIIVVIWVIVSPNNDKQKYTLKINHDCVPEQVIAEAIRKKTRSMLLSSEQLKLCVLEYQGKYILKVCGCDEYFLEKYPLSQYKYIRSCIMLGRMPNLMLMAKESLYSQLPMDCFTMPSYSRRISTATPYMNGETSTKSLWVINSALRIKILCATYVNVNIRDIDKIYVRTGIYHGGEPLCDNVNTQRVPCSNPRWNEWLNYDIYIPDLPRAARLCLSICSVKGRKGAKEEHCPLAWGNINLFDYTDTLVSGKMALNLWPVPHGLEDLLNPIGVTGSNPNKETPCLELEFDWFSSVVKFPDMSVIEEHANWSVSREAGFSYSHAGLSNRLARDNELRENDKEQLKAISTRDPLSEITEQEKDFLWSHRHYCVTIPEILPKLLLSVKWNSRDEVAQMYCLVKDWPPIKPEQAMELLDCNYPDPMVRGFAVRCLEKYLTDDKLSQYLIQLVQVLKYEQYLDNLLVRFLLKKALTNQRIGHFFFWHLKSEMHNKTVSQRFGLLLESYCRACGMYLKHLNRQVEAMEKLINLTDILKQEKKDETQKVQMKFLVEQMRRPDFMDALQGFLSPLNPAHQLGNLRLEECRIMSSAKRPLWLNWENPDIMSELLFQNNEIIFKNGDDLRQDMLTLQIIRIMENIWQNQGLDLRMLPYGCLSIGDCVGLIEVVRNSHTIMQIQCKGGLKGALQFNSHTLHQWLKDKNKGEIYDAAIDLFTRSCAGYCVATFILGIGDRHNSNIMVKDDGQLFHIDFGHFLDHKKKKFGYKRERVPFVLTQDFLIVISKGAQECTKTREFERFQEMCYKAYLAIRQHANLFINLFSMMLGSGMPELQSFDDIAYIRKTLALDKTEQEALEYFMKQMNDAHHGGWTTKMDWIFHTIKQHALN
# T6 sequence (P46098 whole entry): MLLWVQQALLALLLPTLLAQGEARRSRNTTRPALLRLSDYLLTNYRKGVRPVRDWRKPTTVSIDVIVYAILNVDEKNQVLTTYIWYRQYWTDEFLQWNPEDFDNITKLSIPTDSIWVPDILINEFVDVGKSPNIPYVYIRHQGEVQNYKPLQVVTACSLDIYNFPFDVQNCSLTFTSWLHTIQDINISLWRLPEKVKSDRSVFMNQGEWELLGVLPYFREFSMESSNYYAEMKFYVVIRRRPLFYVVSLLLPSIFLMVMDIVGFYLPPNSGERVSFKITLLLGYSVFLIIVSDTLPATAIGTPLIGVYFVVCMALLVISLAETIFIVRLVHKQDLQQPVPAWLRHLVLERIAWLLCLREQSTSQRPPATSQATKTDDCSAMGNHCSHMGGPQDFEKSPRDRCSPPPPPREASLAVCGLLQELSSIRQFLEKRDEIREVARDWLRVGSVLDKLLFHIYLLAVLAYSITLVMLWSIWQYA
# T5 sequence (P28222 whole entry): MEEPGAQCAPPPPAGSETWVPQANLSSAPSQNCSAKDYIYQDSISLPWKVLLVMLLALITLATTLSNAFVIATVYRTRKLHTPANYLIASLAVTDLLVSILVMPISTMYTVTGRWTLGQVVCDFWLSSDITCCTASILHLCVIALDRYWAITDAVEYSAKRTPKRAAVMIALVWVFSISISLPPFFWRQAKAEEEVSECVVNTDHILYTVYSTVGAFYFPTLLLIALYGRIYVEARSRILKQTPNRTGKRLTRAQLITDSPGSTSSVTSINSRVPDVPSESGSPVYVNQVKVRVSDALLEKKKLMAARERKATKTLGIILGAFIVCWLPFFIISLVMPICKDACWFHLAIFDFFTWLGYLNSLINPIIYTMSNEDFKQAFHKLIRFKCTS
# T9 sequence (Q15303 whole entry): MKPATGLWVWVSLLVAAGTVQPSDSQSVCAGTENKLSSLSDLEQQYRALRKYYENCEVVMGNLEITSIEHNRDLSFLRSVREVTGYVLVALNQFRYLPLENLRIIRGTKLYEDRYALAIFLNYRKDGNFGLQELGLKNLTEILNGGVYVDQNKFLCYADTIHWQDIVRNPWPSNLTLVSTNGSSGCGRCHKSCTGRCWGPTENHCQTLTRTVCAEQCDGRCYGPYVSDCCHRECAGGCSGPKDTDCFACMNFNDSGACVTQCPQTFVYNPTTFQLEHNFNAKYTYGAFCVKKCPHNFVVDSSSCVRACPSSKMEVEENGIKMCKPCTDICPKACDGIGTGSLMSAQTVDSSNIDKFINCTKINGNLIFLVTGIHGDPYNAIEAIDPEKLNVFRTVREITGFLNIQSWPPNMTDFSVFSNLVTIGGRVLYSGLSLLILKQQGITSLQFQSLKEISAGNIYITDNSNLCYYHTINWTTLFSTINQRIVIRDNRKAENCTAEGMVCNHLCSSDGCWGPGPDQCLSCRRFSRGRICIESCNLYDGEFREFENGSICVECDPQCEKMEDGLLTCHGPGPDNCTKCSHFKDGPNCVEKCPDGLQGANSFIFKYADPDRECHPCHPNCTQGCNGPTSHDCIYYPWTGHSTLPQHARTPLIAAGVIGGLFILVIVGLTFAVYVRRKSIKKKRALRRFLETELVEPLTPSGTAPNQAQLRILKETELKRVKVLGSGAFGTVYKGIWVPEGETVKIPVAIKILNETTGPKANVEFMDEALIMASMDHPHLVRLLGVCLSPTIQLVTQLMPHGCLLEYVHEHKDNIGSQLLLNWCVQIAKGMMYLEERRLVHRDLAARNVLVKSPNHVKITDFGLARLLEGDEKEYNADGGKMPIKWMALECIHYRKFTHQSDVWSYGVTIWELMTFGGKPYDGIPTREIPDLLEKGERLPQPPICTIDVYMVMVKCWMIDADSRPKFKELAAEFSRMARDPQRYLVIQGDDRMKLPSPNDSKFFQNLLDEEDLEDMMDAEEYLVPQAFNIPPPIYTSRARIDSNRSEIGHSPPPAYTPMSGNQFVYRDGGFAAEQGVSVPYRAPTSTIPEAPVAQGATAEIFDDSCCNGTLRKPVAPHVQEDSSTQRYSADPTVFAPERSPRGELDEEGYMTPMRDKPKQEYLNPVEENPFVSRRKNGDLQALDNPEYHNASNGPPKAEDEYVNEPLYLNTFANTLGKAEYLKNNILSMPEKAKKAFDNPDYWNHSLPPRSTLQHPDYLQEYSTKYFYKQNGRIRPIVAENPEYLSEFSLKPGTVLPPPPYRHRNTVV
# T8 sequence (P04626 whole entry): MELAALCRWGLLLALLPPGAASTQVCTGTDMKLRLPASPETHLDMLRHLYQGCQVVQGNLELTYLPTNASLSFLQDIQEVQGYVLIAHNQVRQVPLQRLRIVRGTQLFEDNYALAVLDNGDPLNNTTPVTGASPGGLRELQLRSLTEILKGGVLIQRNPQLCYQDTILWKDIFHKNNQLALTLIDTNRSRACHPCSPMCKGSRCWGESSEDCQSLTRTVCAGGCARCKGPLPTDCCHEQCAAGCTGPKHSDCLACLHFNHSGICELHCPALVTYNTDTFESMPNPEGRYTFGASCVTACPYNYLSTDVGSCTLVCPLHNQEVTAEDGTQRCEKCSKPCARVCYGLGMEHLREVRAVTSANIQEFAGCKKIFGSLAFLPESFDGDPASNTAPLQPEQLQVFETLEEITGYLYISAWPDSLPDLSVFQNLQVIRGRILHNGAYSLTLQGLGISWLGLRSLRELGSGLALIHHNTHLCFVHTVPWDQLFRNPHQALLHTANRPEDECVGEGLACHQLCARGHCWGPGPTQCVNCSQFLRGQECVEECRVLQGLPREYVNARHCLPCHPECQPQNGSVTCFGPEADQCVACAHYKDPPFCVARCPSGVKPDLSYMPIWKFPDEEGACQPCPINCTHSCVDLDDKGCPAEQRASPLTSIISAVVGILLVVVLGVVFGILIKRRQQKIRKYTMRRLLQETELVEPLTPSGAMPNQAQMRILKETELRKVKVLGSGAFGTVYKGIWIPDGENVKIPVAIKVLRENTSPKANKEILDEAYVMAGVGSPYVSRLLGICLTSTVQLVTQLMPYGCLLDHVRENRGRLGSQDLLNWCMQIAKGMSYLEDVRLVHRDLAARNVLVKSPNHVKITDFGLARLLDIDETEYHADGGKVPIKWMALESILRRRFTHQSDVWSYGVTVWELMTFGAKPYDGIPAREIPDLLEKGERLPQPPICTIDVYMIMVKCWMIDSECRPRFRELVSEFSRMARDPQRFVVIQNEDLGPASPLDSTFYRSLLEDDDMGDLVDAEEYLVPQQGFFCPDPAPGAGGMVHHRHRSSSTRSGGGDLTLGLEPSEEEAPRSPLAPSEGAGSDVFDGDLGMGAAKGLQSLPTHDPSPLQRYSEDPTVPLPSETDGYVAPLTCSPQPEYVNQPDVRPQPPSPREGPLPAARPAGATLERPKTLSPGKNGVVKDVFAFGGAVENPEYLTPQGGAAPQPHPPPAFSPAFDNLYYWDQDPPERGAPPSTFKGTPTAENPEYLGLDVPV
# T4 sequence (P25105 whole entry): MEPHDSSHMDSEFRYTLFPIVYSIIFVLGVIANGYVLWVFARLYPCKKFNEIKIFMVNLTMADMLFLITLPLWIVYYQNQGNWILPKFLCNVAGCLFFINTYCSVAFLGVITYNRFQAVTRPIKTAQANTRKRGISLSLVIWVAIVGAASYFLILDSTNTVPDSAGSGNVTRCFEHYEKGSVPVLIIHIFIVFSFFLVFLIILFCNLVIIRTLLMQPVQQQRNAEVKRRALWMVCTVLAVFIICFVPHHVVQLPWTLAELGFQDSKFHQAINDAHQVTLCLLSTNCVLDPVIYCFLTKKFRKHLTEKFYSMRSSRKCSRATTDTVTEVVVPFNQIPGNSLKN
smiles,measurement,setting,value
"C[C@@H](Nc1ncnc2ccc(-c3cnc(Cl)c(NS(C)(=O)=O)c3)cc12)c1ccccc1 [MTX-531, (R)-N-(2-chloro-5-(4-((1-phenylethyl)amino)quinazolin-6-yl)pyridin-3-yl)methane-sulfonamide]",IC50,EGFR,14.7 nM
same,inhibition at 10 µM,[1],5%
same,inhibition at 10 µM,[2],6%
same,inhibition at 10 µM,[3],-1%
same,inhibition at 10 µM,[4],-5%
same,inhibition at 10 µM,[5],1%
same,inhibition at 10 µM,[6],-21%
same,inhibition at 10 µM,[7],10%
same,IC50,PI3Kβ,233 nM
same,IC50,HER2,2500 nM
same,IC50,HER4,> 10000 nM
same,IC50,mTOR,105 nM
same,IC50,PI3Kα,6.4 nM
